pIC50: −log10 of the molar value.

This assay deals with T1, Interstitial collagenase (Homo sapiens, UniProt P03956).
T1 sequence (P03956 whole entry): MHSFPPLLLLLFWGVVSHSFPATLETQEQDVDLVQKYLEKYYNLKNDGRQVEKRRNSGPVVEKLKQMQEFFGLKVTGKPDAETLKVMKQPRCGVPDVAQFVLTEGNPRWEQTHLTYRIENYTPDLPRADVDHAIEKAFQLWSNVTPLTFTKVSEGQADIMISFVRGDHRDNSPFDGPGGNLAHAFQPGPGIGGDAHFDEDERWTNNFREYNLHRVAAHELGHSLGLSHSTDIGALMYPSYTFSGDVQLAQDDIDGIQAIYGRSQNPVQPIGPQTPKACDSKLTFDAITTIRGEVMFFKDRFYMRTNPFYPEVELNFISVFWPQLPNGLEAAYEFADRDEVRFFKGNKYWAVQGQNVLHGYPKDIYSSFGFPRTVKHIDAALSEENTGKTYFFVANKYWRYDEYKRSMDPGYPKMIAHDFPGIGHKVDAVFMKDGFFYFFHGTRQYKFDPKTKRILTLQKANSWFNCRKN
The assay can be described thus: Inhibition of Matrix Metallo Proteinase-1 (MMP-1).
`CNC(=O)[C@H](Cc1ccc(OC)cc1)NC(=O)C1(CC(=O)NO)CCCCC1` showed a negative logarithm of the IC50 (pIC50) of 6.82.

Regarding `CNC(=O)[C@H](Cc1ccc(OC)cc1)NC(=O)[C@]1(CC(=O)NO)CCc2ccccc21`, the pIC50 is 4.76.

`CNC(=O)[C@H](Cc1ccc(OC)cc1)NC(=O)C(C)(CC(=O)NO)c1ccccc1` (stereo partly specified): the negative logarithm of the IC50 (pIC50) is 5.42.

Molecule `CNC(=O)[C@H](Cc1ccc(OC)cc1)NC(=O)[C@@]1(CC(=O)NO)CCc2ccccc21` gave a pIC50 of less than 4.52.

`CNC(=O)[C@H](Cc1ccc(OC)cc1)NC(=O)C1(CC(=O)NO)Cc2ccccc21` (stereo in doubt; form 2) showed a pIC50 of 6.10.

`CNC(=O)[C@H](Cc1ccc(OC)cc1)NC(=O)C1(CC(=O)NO)Cc2ccccc21` (stereo in doubt; form 1): the pIC50 was 5.66.

Regarding `CNC(=O)[C@H](Cc1ccc(OC)cc1)NC(=O)C1(CC(=O)NO)CCCC1`, the pIC50 was 5.55.

Turning to `CNC(=O)[C@H](Cc1ccc(OC)cc1)NC(=O)C(CC(=O)NO)c1ccccc1` (stereo partly specified), the pIC50 was 7.40.

Molecule `CNC(=O)[C@H](Cc1ccc(OC)cc1)NC(=O)C(C)(CC(=O)NO)CC(C)C` (stereo partly specified) had a pIC50 of 6.34.

`CNC(=O)[C@H](Cc1ccc(OC)cc1)NC(=O)C1(CC(=O)NO)CCCc2ccccc21` (stereo partly specified) had a pIC50 of 6.11.

On to `CNC(=O)[C@H](Cc1ccc(OC)cc1)NC(=O)C1(CC(=O)NO)Cc2ccccc2C1`, for which the pIC50 is 6.24.

The pIC50 is the negative decadic logarithm of the IC50, by convention in mol/L.

Source of the values: ChEMBL document CHEMBL1129713, “Inhibitors of MMP-1: an examination of P1 C gem-disubstitution in the succinamide hydroxamate series” (Bioorg Med Chem Lett, 1996).
